{
  "source": "paper PMC7023064",
  "about": "“Design, Synthesis, and Evaluation of Novel 2-Methoxyestradiol Derivatives as Apoptotic Inducers through an Intrinsic Apoptosis Pathway” (Biomolecules, 2020)",
  "key": {"[1]": {"system": "MCF-7 breast cancer cells", "assay": "Real-time polymerase chain reaction of apoptosis genes", "format": "cell-based, human", "details": "5, 10, and 20 μM, GAPDH as control", "protocol": "RNA was isolated using Trizol Reagent (Invitrogen, Carlsbad, California, USA). cDNA was made via the manufacturer’s instructions with the first chain of a cDNA synthesizing kit (Fermentas, Lithuania). Real-time polymerase chain reaction (RT-PCR) was performed on a Da An Gene DA7600 Real Time machine using Da An Gene incorporation (ZhongShan, China). The 2^−ΔΔCT method was used to calculate the relative levels of gene expression using Da An Gene DA7600 QPCR software v3.00 (Da An Gene). The GAPDH (human) expression was used as the internal control. A standard melting-curve cycle was used to confirm the quality of amplification. The reactions were performed in triplicate for each sample. The gene-specific primers were designed with the Primer5 BLAST software by GenScript Co., Ltd. (Nanjing, China): • 1 GAPDH (human): primer (122 bp), • Sense primer: 5′ […] 3’ • Antisense primer: 5′ […] 3′ • 2 Apaf-1 (human): primer (134 bp), • Sense primer: 5′ […] 3′ • Antisense primer: 5′ […] 3′ • 3 Bax (human): primer (112 bp), • Sense primer: 5 ′TTGCTTCAGGGTTTCATCC 3′ • Antisense primer: 5′ […] 3′ • 4 Bcl-2 (human): primer (116 bp), • Sense primer: 5′ […] 3′ • Antisense primer: 5′ […] 3′ • 5 Bcl-xL (human): primer (124 bp), • Sense primer: 5′ […] 3′ • Antisense primer: 5′ […] 3′ • 6 Caspase-3 (human): primer (131 bp), • Sense primer: 5′ […] 3′ • Antisense primer: 5′ […] 3′ • 7 Caspase-8 (human): primer (122 bp), • Sense primer: 5′ […] 3′ • Antisense primer: 5′ […] 3′ • 8 Caspase-9 (human): primer (136 bp), • Sense primer: 5′ […] 3′ • Antisense primer: 5′ […] 3′ • 9 Cytochrome c (human): primer (127 bp), • Sense primer: 5′ […] 3′ • Antisense primer: 5′ […] 3′"}, "MCF-7 cells [2]": {"system": "MCF-7 cells", "assay": "Cell cycle assay (PI staining, flow cytometry)", "format": "cell-based, human", "details": "72 h", "protocol": "MCF-7 cells at a density of 5 × 10^5 cells/well were seeded in 6-well plates and incubated at 37 °C in a humidified 5% CO2 incubator for 24 h. Exponentially growing cells were treated with compound 11/12a (0, 5, 10, and 20 μM) for 72 h. Then, the cells were harvested and fixed with 70% precooled ethanol at 4 °C for 12 h. Later, the cells were centrifuged and washed with cold PBS. 100 μL of RNase A was added, and then bathed in water for 30 min at 37 °C. Subsequently, cells were stained by 400 μL of propidium iodide (PI) for 30 min at 4 °C in the dark. Finally, cellular DNA was measured using a flow cytometry (FACS Calibur Becton-Dickinson, San Jose, California, USA)."}, "[3]": {"system": "human breast adenocarcinoma MCF-7 cell lines", "assay": "MTT cytotoxicity assay, MCF-7", "format": "cell-based", "protocol": "(§1) Human breast adenocarcinoma MCF-7 cell lines, human breast cancer MDA-MB-231 cell lines, and the normal human liver L-O2 cell lines were provided by Nanjing KeyGen Biotech Co. Ltd. (Nanjing, China). MCF-7 cells were cultured in a base medium (90% RPMI-1640 and 10% FBS) at 37 °C, 5% CO2 and a saturated humidity atmosphere. MDA-MB-231 cells were cultured in a base medium (90% […] and 10% FBS) at 37 °C, 5% CO2 and a saturated humidity atmosphere. L-O2 cells were cultured in a base medium (90% DMEM and 10% FBS) at 37 °C, 5% CO2 and a saturated humidity atmosphere.\n(§2) The cytotoxicity of the tested compounds was determined using the 3-(4,5-dimethyl-2-thiazolyl)-2,5-diphenyl-2-H-tetrazolium bromide (MTT) assay. Cells were seeded in 96-well plates and incubated in a 5% CO2 incubator at 37 °C. When the cells adhered, compounds at different concentrations were added to every well. After incubation for another 72 h, MTT solution (5 mg/mL) was added into each well and cells were incubated for an additional 4 h. The viable cells were stained with MTT and scanned with an electrophotometer at 570 nm. Each concentration treatment was done in triplicate wells. The half maximal inhibitory concentration (IC50) values were estimated by fitting the inhibition data to a dose-dependent curve using a logistic derivative equation."}, "MCF-7 cells [4]": {"system": "MCF-7 cells", "assay": "Western blotting of apoptosis proteins", "format": "cell-based, human", "details": "0, 5, 10, and 20 µM, 72 h, β-actin as control", "protocol": "After the treatment of MCF-7 cells with compound 11/12a (0, 5, 10, and 20 μM) for 72 h, the total proteins of MCF-7 cells were extracted and their concentrations were balanced to the same level by BCA protein assay reagent (KGP902, KeyGen Biotech Co. Ltd., Nanjing, China), followed by 8 min of protein denaturation with SDS loading buffer at 100 °C. Proteins were separated by sodium dodecyl sulfate-polyacrylamide electrophoresis (SDS-PAGE) and transferred onto polyvinylidene fluoride (PVDF) membranes, which were blocked with 5 mL of 5% fat-free dry milk in 1× Tris-buffered saline (TBS) containing 0.05% Tween 20 for 2 h. Then the membranes were incubated with Apaf-1 (Abcam, no: ab234436), Bax (Abcam, no: ab32503), Bcl-2 (Abcam, no: ab692), Bcl-xL (Abcam, no: ab32370), caspase-3 (Abcam, no: ab184787), caspase-8 (Abcam, no: ab25901), caspase-9 (Abcam, no: ab219590), cytochrome c (Abcam, no: ab133504), and β-actin (Abcam, no: ab8226) antibodies at 4 °C overnight, followed by treatment with secondary horseradish-peroxidase-conjugated anti-rabbitIgG (KeyGen Biotech Co. Ltd., no: KGAA35) for 2 h. Membranes were finally scanned in a ChemiDoc MP Imaging System (Bio-Rad) after 2 min incubation in Clarity Western ECL Substrate (Bio-Rad)."}, "[5]": {"system": "MCF-7 and MDA-MB-231 cell lines", "assay": "MTT assay, summary over tested tumor cells", "format": "cell-based, human", "details": "for selectivity towards cancerous cell lines vs healthy cell line: MCF-7 and MDA-MB-231 vs L-O2", "protocol": "as §1, §2"}},
  "note": "Read-outs that look alike come from different tables or passages of the source.",
  "data": [
    {"compound": "17 β-[6-(Uracil-3-yl)-Hexyloxy]-2-Methoxy-Estra-1,3,5(10)-Triene-3-ol [Compound 12a]", "values": [
      {"measurement": "mRNA expression levels of Apaf-1, Bax, caspase-3, caspase-8, caspase-9, and cytochrome c", "setting": "[1]", "result": "upregulated"},
      {"measurement": "mRNA expression levels of Bcl-2 and Bcl-xL", "setting": "[1]", "result": "downregulated"},
      {"measurement": "cells at the G2 phase", "setting": "MCF-7 cells [2]; 5 μM", "result": 7.97, "unit": "%"},
      {"measurement": "cells at the G2 phase", "setting": "MCF-7 cells [2]; 10 μM", "result": 13.93, "unit": "%"},
      {"measurement": "cells at the G1 phase", "setting": "MCF-7 cells [2]; 20 μM", "result": 54.41, "unit": "%"},
      {"measurement": "cells at the G2 phase", "setting": "MCF-7 cells [2]; 20 μM", "result": 22.46, "unit": "%"},
      {"measurement": "IC50", "setting": "[3]; MTT, 72 h, mean ± SD of three experiments, read-out: IC50 MCF-7", "result": "11.2 ± 0.46", "unit": "µM"},
      {"measurement": "IC50", "setting": "[3]; Table 2, mean ± SD of three experiments, read-out: IC50 for MCF-7", "result": "11.2 ± 0.46", "unit": "µM"},
      {"measurement": "pIC50 for MCF-7", "setting": "[3]; pIC50 = −log(IC50)", "result": 4.95},
      {"measurement": "protein expressions of Apaf-1, Bax, caspase-3, caspase-8, caspase-9, and cytochrome c", "setting": "MCF-7 cells [4]", "result": "increased in a dose-dependent manner"},
      {"measurement": "protein expressions of Bcl-2 and Bcl-xL", "setting": "MCF-7 cells [4]", "result": "obviously decreased"},
      {"measurement": "selectivity towards cancerous cell lines vs healthy cell line", "setting": "[5]", "result": "about 6 fold"}
    ]},
    {"compound": "COc1cc2c(cc1O)CC[C@@H]1[C@@H]2CC[C@]2(C)[C@@H](OCCCCCCCCn3c(=O)ccn([C@@H]4O[C@H](CO)[C@@H](O)[C@H]4O)c3=O)CC[C@@H]12", "note": "[Compound 11, 17 β-[8-(1-β-D-Ribofuranosyluracil-3-yl)-Octyloxy]-2-Methoxy-Estra-1,3,5(10)-Triene-3-ol]", "values": [
      {"measurement": "mRNA expression levels of Apaf-1, Bax, caspase-3, caspase-8, caspase-9, and cytochrome c", "setting": "[1]", "result": "upregulated"},
      {"measurement": "mRNA expression levels of Bcl-2 and Bcl-xL", "setting": "[1]", "result": "downregulated"},
      {"measurement": "cells at the G2 phase", "setting": "MCF-7 cells [2]; 5 μM", "result": 8.32, "unit": "%"},
      {"measurement": "cells at the G2 phase", "setting": "MCF-7 cells [2]; 10 μM", "result": 15.48, "unit": "%"},
      {"measurement": "cells at the G1 phase", "setting": "MCF-7 cells [2]; 20 μM", "result": 42.84, "unit": "%"},
      {"measurement": "cells at the G2 phase", "setting": "MCF-7 cells [2]; 20 μM", "result": 24.11, "unit": "%"},
      {"measurement": "IC50", "setting": "[3]; Homo sapiens, MCF7, MTT, 72 h, mean ± SD of three experiments, read-out: IC50 MCF-7", "result": "13.9 ± 0.16", "unit": "µM"},
      {"measurement": "IC50", "setting": "[3]; Homo sapiens, MCF7, Table 2, mean ± SD of three experiments, read-out: IC50 for MCF-7", "result": "13.9 ± 0.16", "unit": "µM"},
      {"measurement": "IC50", "setting": "[3]; Homo sapiens, MCF7, pIC50 = −log(IC50), read-out: pIC50 for MCF-7 (converted)", "result": 13.8, "unit": "µM"},
      {"measurement": "protein expressions of Apaf-1, Bax, caspase-3, caspase-8, caspase-9, and cytochrome c", "setting": "MCF-7 cells [4]", "result": "increased in a dose-dependent manner"},
      {"measurement": "protein expressions of Bcl-2 and Bcl-xL", "setting": "MCF-7 cells [4]", "result": "obviously decreased"},
      {"measurement": "IC50", "setting": "[5]; Homo sapiens, MCF-7 and MDA-MB-231, read-out: IC50, anti-proliferative activity against tested tumor cells", "result": "3.89 to 16.7", "unit": "µM"},
      {"measurement": "selectivity towards cancerous cell lines vs healthy cell line", "setting": "[5]", "result": "~7", "unit": "fold"}
    ]}
  ]
}
